In patent publication US11713335B2, “Aminocoumarin compounds and methods of their use” (President and Fellows of Harvard College, priority 2018, dated 2023):
Values after ≈ are worked out from the molar mass of the structure shown. Like-named read-outs stand apart in the source and are kept apart here.

Key:
Type in all cases: cell-based
S. aureus RN4220 = experiment: Minimal inhibitory concentration, S. aureus RN4220; conditions: read-out: MIC (μM) S. aureus RN4220
Description: (§1) General Procedure for Determination of Minimal Inhibitory Concentrations
(§2) Overnight cultures (5 mL) of bacterial strains were grown in LB media or TSA media (for S. aureus) at 37° C. and with shaking at 220 rpm until saturation. The overnight culture was diluted serially 1:100 (50 μL in 5 mL sterile media) and then 1:100 (250 μL in 25 mL sterile media). The 25 mL of diluted culture was then dispensed to a sterile 96 well plate (Corning #3370). 198 μL of culture were dispensed into row A and 100 μL of this culture were dispensed into rows B-H. Aminocoumarin compound (DMSO stock) were added to the first row and then the row was mixed by pipetting. 100 μL of culture from row A were transferred to row B and the serial dilution continued until the final 100 μL from row H were discarded. The plate was incubated without shaking in a 37° C. for 16 hours and then read by visible light spectrophotometer (Molecular Devices) at 600 nm. The minimal inhibitory concentration (MIC) was determined as the lowest concentration of compound concentration that inhibited the growth of bacteria.
(§3) The compounds of the invention were assessed for activities against the pathogens S. aureus RN4220 and MW2, E. cloacae 13047, A. baumannii 19606, K. pneumoniae 700721, E. coli MC4100, 25922. All activities are reported in micromolar (uM) and are 16 hour minimal inhibitory concentrations at 37° C. The assay is detailed in Example 11 and is titled “General Procedure for Determination of Minimal Inhibitory Concentrations.”

S. aureus MW2 = experiment: Minimal inhibitory concentration, S. aureus MW2; conditions: read-out: MIC (μM) S. aureus MW2 (MRSA)
Description: as §1, §2, §3

E. cloacae 13047 = experiment: Minimal inhibitory concentration, E. cloacae 13047; conditions: read-out: MIC (μM) E. cloacae 13047
Description: as §1, §2, §3

A. baumannii 19606 = experiment: Minimal inhibitory concentration, A. baumannii 19606; conditions: read-out: MIC (μM) A. baumannii 19606
Description: as §1, §2, §3

K. pneumoniae 700721 = experiment: Minimal inhibitory concentration, K. pneumoniae 700721; conditions: read-out: MIC (μM) K. pneumoniae 700721
Description: as §1, §2, §3

E. coli MC4100 = experiment: Minimal inhibitory concentration, E. coli MC4100; conditions: read-out: MIC (μM) E. coli MC4100 ara+
Description: as §1, §2, §3

E. coli 25922 = experiment: Minimal inhibitory concentration, E. coli 25922; conditions: read-out: MIC (μM) E. coli 25922
Description: as §1, §2, §3

[1] = Staphylococcus aureus, RN4220, 16 h, 16 hour minimal inhibitory concentration at 37° C.
[2] = Staphylococcus aureus, MRSA, 16 h, 16 hour minimal inhibitory concentration at 37° C.
[3] = Enterobacter cloacae, 13047, 16 hour minimal inhibitory concentration at 37° C.
[4] = Acinetobacter baumannii, 19606, 16 h, 16 hour minimal inhibitory concentration at 37° C.
[5] = Klebsiella pneumoniae, 700721, 16 hour minimal inhibitory concentration at 37° C.
[6] = Escherichia coli, MC4100, 16 h, 16 hour minimal inhibitory concentration at 37° C.
[7] = Escherichia coli, 25922, 16 h, 16 hour minimal inhibitory concentration at 37° C.
[8] = 16 hour minimal inhibitory concentration at 37° C.

Compound | MIC (S. aureus RN4220; [1]) [µM] | MIC (S. aureus MW2; [2]) [µM] | MIC (E. cloacae 13047; [3]) [µM] | MIC (A. baumannii 19606; [4]) [µM] | MIC (K. pneumoniae 700721; [5]) [µM] | MIC (E. coli MC4100; [6]) [µM] | MIC (E. coli 25922; [7]) [µM] | further results
CO[C@@H]1[C@@H](OC(N)=O)[C@@H](O)[C@H](Oc2ccc3c(O)c(NC(=O)c4ccc(CN)cc4)c(=O)oc3c2C)OC1(C)C [Compound 207] | > 100 | > 100 | > 100 | > 50 | > 100 | > 200 | > 200 | 
CO[C@@H]1[C@@H](OC(N)=O)[C@@H](O)[C@H](Oc2ccc3c(O)c(NC(=O)c4cccc(Oc5ccc(C(C)(C)C)cc5)c4)c(=O)oc3c2C)OC1(C)C [Compound 248] | 2.3 (≈ 1.56 µg/mL) | 2.3 (≈ 1.56 µg/mL) | > 100 | > 50 | > 100 | > 200 | 148 (≈ 100 µg/mL) | 
CCCOCCOCC#Cc1ccc(C(=O)Nc2c(O)c3ccc(O[C@@H]4OC(C)(C)[C@H](OC)[C@@H](OC(N)=O)[C@H]4O)c(C)c3oc2=O)cc1 [Compound 226] | > 100 | > 100 | > 100 | > 50 | > 100 | > 200 | > 200 | 
CO[C@@H]1[C@@H](OC(N)=O)[C@@H](O)[C@H](Oc2ccc3c(O)c(NC(=O)c4cccc(Br)c4)c(=O)oc3c2C)OC1(C)C [Compound 232] | 82 (≈ 49.8 µg/mL) | 82 (≈ 49.8 µg/mL) | > 100 | > 50 | > 100 | > 200 | > 200 | 
CO[C@@H]1[C@@H](OC(=O)c2cc(C)c(C)[nH]2)[C@@H](O)[C@H](Oc2ccc3c(O)c(NC(=O)c4ccc(O)c(CC=C(C)C)c4)c(=O)oc3c2C)OC1(C)C [Compound 213] |  |  |  |  |  |  |  | MIC (S. aureus RN4220; Staphylococcus aureus, RN4220, 16 h): 1.8 µM (≈ 1.24 µg/mL); MIC (S. aureus MW2; Staphylococcus aureus, MRSA, 16 h): 0.45 µM (≈ 0.311 µg/mL); MIC (E. cloacae 13047; Enterobacter cloacae, 13047, 16 h): > 100 µM; MIC (A. baumannii 19606; Acinetobacter baumannii, 19606, 16 h): 4.5 µM (≈ 3.11 µg/mL); MIC (K. pneumoniae 700721; Klebsiella pneumoniae, 700721, 16 h): > 100 µM; MIC (E. coli MC4100; Escherichia coli, MC4100, 16 h): > 200 µM; MIC (E. coli 25922; Escherichia coli, 25922, 16 h): > 200 µM
C#CCOc1cccc(C(=O)Nc2c(O)c3ccc(O[C@@H]4OC(C)(C)[C@H](OC)[C@@H](OC(N)=O)[C@H]4O)c(C)c3oc2=O)c1 [Compound 230] | 86 (≈ 50.1 µg/mL) | 86 (≈ 50.1 µg/mL) | > 100 | > 50 | > 100 | 86 (≈ 50.1 µg/mL) | 172 (≈ 100 µg/mL) | 
CO[C@@H]1[C@@H](O)[C@@H](OC(=O)c2ccc[nH]2)[C@H](Oc2ccc3c(O)c(NC(=O)c4ccc(O)c(CC=C(C)C)c4)c(=O)oc3c2C)OC1(C)C [Compound 113] |  |  |  |  |  |  |  | MIC (S. aureus RN4220; [8]): 0.5 µM (≈ 0.331 µg/mL); MIC (S. aureus MW2; [8]): 0.24 µM (≈ 0.159 µg/mL); MIC (E. cloacae 13047; [8]): >100 µM; MIC (A. baumannii 19606; [8]): 2 µM (≈ 1.33 µg/mL); MIC (K. pneumoniae 700721; [8]): >100 µM; MIC (E. coli MC4100; [8]): >200 µM; MIC (E. coli 25922; [8]): >200 µM
CCNC(=O)O[C@H]1[C@H](Oc2ccc3c(O)c(NC(=O)c4ccc(O)c(CC=C(C)C)c4)c(=O)oc3c2C)OC(C)(C)[C@H](OC)[C@H]1O [Compound 104] |  |  |  |  |  |  |  | MIC (S. aureus RN4220; [8]): 2 µM (≈ 1.28 µg/mL); MIC (S. aureus MW2; [8]): 2 µM (≈ 1.28 µg/mL); MIC (E. cloacae 13047; [8]): >100 µM; MIC (A. baumannii 19606; [8]): 10 µM (≈ 6.41 µg/mL); MIC (K. pneumoniae 700721; [8]): >100 µM; MIC (E. coli MC4100; [8]): >200 µM; MIC (E. coli 25922; [8]): 156 µM (≈ 99.9 µg/mL)
CO[C@@H]1[C@@H](OC(N)=O)[C@@H](O)[C@H](Oc2ccc3c(O)c(NC(=O)c4ccc(C)c(Oc5ccccc5)c4)c(=O)oc3c2C)OC1(C)C [Compound 255] | 5 (≈ 3.17 µg/mL) | 5 (≈ 3.17 µg/mL) | 77 (≈ 48.9 µg/mL) | > 50 | 10 (≈ 6.35 µg/mL) | 2.4 (≈ 1.52 µg/mL) | 5 (≈ 3.17 µg/mL) | 
CO[C@@H]1[C@@H](OC(N)=O)[C@@H](O)[C@H](Oc2ccc3c(O)c(NC(=O)c4cccc(Oc5ccccc5Cl)c4)c(=O)oc3c2C)OC1(C)C [Compound 246] | 10 (≈ 6.55 µg/mL) | 5 (≈ 3.28 µg/mL) | > 100 | > 50 | > 100 | 79 (≈ 51.7 µg/mL) | 76 (≈ 49.8 µg/mL) | 
CO[C@@H]1[C@@H](OC(N)=O)[C@@H](O)[C@H](Oc2ccc3c(O)c(NC(=O)c4cccc(-c5ccc(F)c(F)c5)c4)c(=O)oc3c2C)OC1(C)C [Compound 219] | 5 (≈ 3.2 µg/mL) | 5 (≈ 3.2 µg/mL) | > 100 | > 50 | 78 (≈ 50 µg/mL) | 39 (≈ 25 µg/mL) | 20 (≈ 12.8 µg/mL) | 
CO[C@@H]1[C@@H](OC(N)=O)[C@@H](O)[C@H](Oc2ccc3c(O)c(NC(=O)c4cccc(-c5ccccc5Br)c4)c(=O)oc3c2C)OC1(C)C [Compound 235] | 9 (≈ 6.15 µg/mL) | 5 (≈ 3.42 µg/mL) | > 100 | > 50 | > 100 | 18 (≈ 12.3 µg/mL) | 18 (≈ 12.3 µg/mL) | 
CO[C@@H]1[C@@H](OC(N)=O)[C@@H](O)[C@H](Oc2ccc3c(O)c(NC(C)=O)c(=O)oc3c2C)OC1(C)C [Compound 102] |  |  |  |  |  |  |  | MIC (S. aureus RN4220; [8]): >100 µM; MIC (S. aureus MW2; [8]): >100 µM; MIC (E. cloacae 13047; [8]): >100 µM; MIC (A. baumannii 19606; [8]): >50 µM; MIC (K. pneumoniae 700721; [8]): >100 µM; MIC (E. coli MC4100; [8]): >200 µM; MIC (E. coli 25922; [8]): >200 µM
CO[C@@H]1[C@@H](OC(N)=O)[C@@H](O)[C@H](Oc2ccc3c(O)c(NC(=O)c4cccc(Oc5cccc(C)c5)c4)c(=O)oc3c2C)OC1(C)C [Compound 247] | 10 (≈ 6.35 µg/mL) | 5 (≈ 3.17 µg/mL) | > 100 | > 50 | > 100 | 18 (≈ 11.4 µg/mL) | 39 (≈ 24.8 µg/mL) | 
CO[C@@H]1[C@@H](OC(N)=O)[C@@H](O)[C@H](Oc2ccc3c(O)c(NC(=O)c4cccc(Oc5ccc(Cl)cc5)n4)c(=O)oc3c2C)OC1(C)C [Compound 238] | 10 (≈ 6.56 µg/mL) | 10 (≈ 6.56 µg/mL) | > 100 | > 50 | > 100 | 152 (≈ 99.7 µg/mL) | > 200 | 
CO[C@@H]1[C@@H](OC(N)=O)[C@@H](O)[C@H](Oc2ccc3c(O)c(NC(=O)c4cccc(Oc5ccc(C(F)(F)F)cc5)c4)c(=O)oc3c2C)OC1(C)C [Compound 251] | 9 (≈ 6.2 µg/mL) | 9 (≈ 6.2 µg/mL) | > 100 | > 50 | > 100 | 4.5 (≈ 3.1 µg/mL) | 9 (≈ 6.2 µg/mL) | 
CO[C@@H]1[C@@H](OC(N)=O)[C@@H](O)[C@H](Oc2ccc3c(O)c(NC(=O)c4cccc(Oc5ccc(Cl)cc5)c4)c(=O)oc3c2C)OC1(C)C [Compound 243] | 10 (≈ 6.55 µg/mL) | 10 (≈ 6.55 µg/mL) | > 100 | > 50 | > 100 | 4.8 (≈ 3.14 µg/mL) | 38 (≈ 24.9 µg/mL) | 
CO[C@@H]1[C@@H](OC(N)=O)[C@@H](O)[C@H](Oc2ccc3c(O)c(NC(=O)c4cccc(Oc5ccc(C#N)cc5)c4)c(=O)oc3c2C)OC1(C)C [Compound 242] | > 100 | 77 (≈ 49.7 µg/mL) | > 100 | > 50 | > 100 | 153 (≈ 98.8 µg/mL) | 154 (≈ 99.4 µg/mL) | 
CO[C@@H]1[C@@H](OC(N)=O)[C@@H](O)[C@H](Oc2ccc3c(O)c(NC(=O)c4ccc(F)c(Oc5ccccc5)c4)c(=O)oc3c2C)OC1(C)C [Compound 254] | 10 (≈ 6.39 µg/mL) | 10 (≈ 6.39 µg/mL) | 79 (≈ 50.4 µg/mL) | > 50 | 20 (≈ 12.8 µg/mL) | 2.4 (≈ 1.53 µg/mL) | 5 (≈ 3.19 µg/mL) | 
CO[C@@H]1[C@@H](OC(N)=O)[C@@H](O)[C@H](Oc2ccc3c(O)c(NC(=O)c4ccc(O)c(C/C=C/CCC(=O)O)c4)c(=O)oc3c2C)OC1(C)C [Compound 203] | > 100 | > 100 | > 100 | > 50 | > 100 | > 200 | > 200 | 
